Laboratory results: patent US6511966B2, “Mitochondria protecting agents for treating mitochondria associated diseases” (MitoKor, priority 1998, dated 2003)
Like-named read-outs stand apart in the source and are kept apart here.

How the values were obtained:
[1] = system: SH-SY5Y human neuroblastoma cells; assay: DCFC assay for inhibition of ROS production, cell-based aspect; details: read-out: IC50 Cell-Based (Inhibition of ROS, DCFC assay)
Excerpt: According to this assay, the ability of a mitochondria protecting agent of the invention to inhibit production of ROS intracellularly may be compared to its antioxidant activity in a cell-free environment. […] Non-fluorescent DCFC is converted upon oxidation to a fluorophore that can be quantified fluorimetrically. Cell membranes are also permeable to DCFC, but the charged acetate groups of DCFC are removed by intracellular esterase activity, rendering the indicator less able to diffuse back out of the cell. In the cell-based aspect of the DCFC assay for inhibition of production of ROS, cultured cells may be pre-loaded with a suitable amount of DCFC and then contacted with a mitochondria protecting agent. After an appropriate interval, free radical production in the cultured cells may be induced by contacting them with iron (III)/ascorbate and the relative mean DCFC fluorescence can be monitored as a function of time. In the cell-based aspect of the DCFC assay, monolayers of cultured adherent SH-SY5Y human neuroblastoma cells (Biedler et al., Cancer Res. 33:2643, 1973) at or near confluence were rinsed and harvested using trypsin according to standard methods. […] The excess DCFC-DA was removed by needle aspiration and each well was gently rinsed twice with HBSS. Each well then received 80 μl of HBSS and 10 μl of mitochondria protecting agent, or vehicle control, diluted into HBSS from stock solutions of dimethylformamide or dimethylsulfoxide. The final concentration of the organic solvent was maintained at or below 0.1% (v/v) in HBSS while in contact with cells. Cells were equilibrated for 15 minutes at room temperature with the mitochondria protecting agent (or vehicle control) and then 10 μl of fresh 500 μM ferric chloride/300 μM ascorbate solution was added to initiate free radical formation. Fluorescence of each microculture in the 96-well plate was quantified immediately using a Cytofluor fluorimetric plate reader (model #2350, Millipore Corp., Bedford, Mass.; excitation wavelength=485 nm, emission wavelength=[…]) and t0 fluorescence was recorded. The 96-well plates were incubated 30 minutes at 37° C./5% CO2 and fluorescence at 530 nm was again measured (t30). […] The cells were then harvested by trypsinization and counted using a hemacytometer in order to normalize the data as Δ(t30,−t0)RMF per cell. The efficacy of a candidate mitochondria protecting agent was determined by comparing its ability to inhibit ROS production relative to the vehicle control.

[2] = system: SH-SY5Y neuroblastoma cells; assay: Ionomycin induced apoptosis (membrane blebbing by light microscopy); type: cell-based, human
Method: SH-SY5Y neuroblastoma cells (1×10^5 cells) are rinsed with one volume 1×PBS, and then treated with 10 μM ionomycin (Calbiochem, San Diego, Calif.) in DMEM supplemented with 10% fetal calf serum (FCS) (Gibco, Life Technologies, Grand Island, N.Y.) for 10 minutes, followed by two washes with DMEM (10% FCS). After 6h incubation at 37° C. in DMEM (10% FCS), cells are visualized by light microscopy (20X magnification). […] When cells are simultaneously treated with ionomycin and 2 mM creatine, the proportion of cells undergoing apoptosis as evidenced by membrane blebbing is reduced to approximately 10%. Candidate mitochondria protecting agents are assayed to determine whether they provides the same magnitude of protection from induction of apoptosis as does creatine in this ionomycin induced apoptosis assay.

[3] = Homo sapiens, 0.5 h, SH-SY5Y cells pre-loaded with DCFC-DA, ferric chloride/ascorbate induced free radical formation, fluorescence change over 30 minutes

| IC50 [1, 3] [µM] | SMILES | further results |
| --- | --- | --- |
| 0.065 | CC(C)(C)CC(C)(C)c1ccc(O)c(N)c1 [(I-3)] | – |
| 1 | CC(C)(c1ccc(O)cc1)c1ccc(O)cc1 [(II-5), 4,4′-Isopropylidenediphenol] | – |
| 0.025 | CCCCCCCCc1ccc(O)c(N)c1 [(I-2), 2-amino4octyl phenol] | – |
| 1 | Cc1c(C)c2c(c(C)c1O)CCC(C)(CNNC(=N)N)O2 (stereo not drawn) [(IV-9)] | – |
| 0.035 | CC(C)(c1ccc(O)c(N)c1)c1ccc(O)c(N)c1 [(II-2)] | – |
| 0.1 | OCCCc1ccc(O)c(O)c1 [(I-5)] | – |
| 0.07 | CC1=CC(C)(C)Nc2ccc(O)cc21 [(III-3), 2,2,4-trimethyl-1,2-dihydro-quinolin-6-ol] | – |
| 0.2 | CCCc1ccc(O)c(O)c1 [(I-6), 2-hydroxy4-propylphenol] | – |
| 0.01 | CN(C)c1cc(C(C)(C)c2ccc(O)c(N(C)C)c2)ccc1O [(II-6)] | – |

Continued, molecule first:

| SMILES | IC50 [1, 3] [µM] | further results |
| --- | --- | --- |
| C[C@H](CCC(=O)O)C[C@H](C)C[C@H](C)C(=O)/C=C(\O)[C@H](C)C[C@H](C)C/C=C/[C@@H](C)[C@@H](O)[C@@H](C)[C@@H](O)C[C@@H]1CC[C@@](C)([C@H]2CC[C@@](C)([C@@H](C)O)O2)O1 [ionomycin] | – | ionomycin treated cells exhibiting membrane blebbing (final stage of apoptosis) ([2]; 10 μM ionomycin for 10 minutes, then 6h incubation at 37° C., untreated cells <5%): Approximately 80% |
| CN(CC(=O)O)C(=N)N [creatine] | – | proportion of cells undergoing apoptosis as evidenced by membrane blebbing ([2]; cells simultaneously treated with 10 μM ionomycin and 2 mM creatine, 6h incubation at 37° C.): approximately 10% |
| CCOc1ccc2c(c1)C(C)=CC(C)(C)N2 [(III-4), 6-ethoxy-1,2-dihydro-2,2,4-trimethylguinoline] | – | IC50 ([1]; SH-SY5Y cells pre-loaded with DCFC-DA, ferric chloride/ascorbate induced free radical formation, fluorescence change over 30 minutes): 0.02 µM |
| CC(C)(c1ccc(O)cc1)c1ccc(O)c(NC(=N)N)c1 [(II-10)] | – | IC50 ([1]; Homo sapiens, SH-SY5Y, 0.5 h): 1 µM |
| CCCc1ccc(OC(C)=O)c(OC(C)=O)c1 [(I-8)] | 0.4 | – |
| CCCc1cc(O)ccc1O [(I-10)] | 0.12 | – |
